ChEMBL document CHEMBL3885881, “DrugMatrix”

Species on record: Rattus norvegicus
Test: DrugMatrix - Regimen: Daily Repeat
Type: toxicity, organism-based, Sprague-Dawley
Parameters: regimen Daily Repeat, gender Male, age 6-8 weeks
Settings: in vivo, iv, vehicle 100 % SALINE; for ABSOLUTE BASOPHIL / ABSOLUTE EOSINOPHIL / ABSOLUTE LYMPHOCYTE / ABSOLUTE MONOCYTE / ABSOLUTE SEGMENTED NEUTROPHIL / BASOPHIL / EOSINOPHIL / ERYTHROCYTE COUNT / HEMATOCRIT / HEMOGLOBIN / LEUKOCYTE COUNT / LYMPHOCYTE / MEAN CORPUSCULAR HEMOGLOBIN / MONOCYTE / NEUTROPHIL / NUCLEATED RED BLOOD CELLS / PLATELET COUNT / MEAN CORPUSCULAR HEMOGLOBIN CONCENTRATION / MEAN CORPUSCULAR VOLUME: tissue Blood
[1] = 6 mg/kg, 72 h, dose level High, time 3 day
[2] = 6 mg/kg, 72 h, tissue Plasma, dose level High, time 3 day
[3] = 6 mg/kg, 120 h, dose level High, time 5 day
[4] = 6 mg/kg, 120 h, tissue Plasma, dose level High, time 5 day
[5] = […], 72 h, dose 0.12 mg/Kg, dose level Low, time 3 day
[6] = […], 72 h, tissue Plasma, dose 0.12 mg/Kg, dose level Low, time 3 day
[7] = […], 120 h, dose 0.12 mg/Kg, dose level Low, time 5 day
[8] = […], 120 h, tissue Plasma, dose 0.12 mg/Kg, dose level Low, time 5 day

Question: What does the source list for SODIUM NITROPRUSSIDE?
Answer: ABSOLUTE BASOPHIL [1]: 0 CELLS/uL; ABSOLUTE EOSINOPHIL [1]: 0 CELLS/uL; ABSOLUTE LYMPHOCYTE [1]: 16076 CELLS/uL; ABSOLUTE MONOCYTE [1]: 195 CELLS/uL; ABSOLUTE SEGMENTED NEUTROPHIL [1]: 1029 CELLS/uL; BASOPHIL [1]: 0%; EOSINOPHIL [1]: 0%; ERYTHROCYTE COUNT [1]: 6.07 x10E6/uL; HEMATOCRIT [1]: 38.07%; HEMOGLOBIN [1]: 15 G/DL; LEUKOCYTE COUNT [1]: 17.3 x10E3/uL; LYMPHOCYTE [1]: 92.67%; MEAN CORPUSCULAR HEMOGLOBIN [1]: 24.73 pg; MONOCYTE [1]: 1%; NEUTROPHIL [1]: 6.33%; NUCLEATED RED BLOOD CELLS [1]: 0 /100WBC; PLATELET COUNT [1]: 1432 x10E3/uL; ALANINE AMINOTRANSFERASE [2]: 34.67 u/L; ALBUMIN [2]: 4.5 G/DL; ALKALINE PHOSPHATASE [2]: 308.33 u/L; ASPARTATE AMINOTRANSFERASE [2]: 90.67 u/L; BLOOD UREA NITROGEN [2]: 21.33 mg/dL; CARBON DIOXIDE [2]: 23.67 mmol/L; CHOLESTEROL [2]: 68 mg/dL; CREATINE PHOSPHOKINASE [2]: 251 u/L; CREATININE [2]: 0.17 mg/dL; GLUCOSE [2]: 173 mg/dL; LACTATE DEHYDROGENASE [2]: 383.67 u/L; LIPASE [2]: 8.33 u/L; PHOSPHORUS [2]: 13.27 mg/dL; POTASSIUM [2]: 6.61 MEQ/L; TOTAL BILIRUBIN [2]: 0.1 mg/dL; TOTAL PROTEIN [2]: 6.4 G/DL; URIC ACID [2]: 1.87 mg/dL; ABSOLUTE BASOPHIL [3]: 0 CELLS/uL; ABSOLUTE EOSINOPHIL [3]: 139 CELLS/uL; ABSOLUTE LYMPHOCYTE [3]: 12315 CELLS/uL; ABSOLUTE MONOCYTE [3]: 50.33 CELLS/uL; ABSOLUTE SEGMENTED NEUTROPHIL [3]: 1129 CELLS/uL; BASOPHIL [3]: 0%; EOSINOPHIL [3]: 1%; ERYTHROCYTE COUNT [3]: 5.93 x10E6/uL; HEMATOCRIT [3]: 37.1%; HEMOGLOBIN [3]: 14.97 G/DL; LEUKOCYTE COUNT [3]: 13.63 x10E3/uL; LYMPHOCYTE [3]: 90.33%; MEAN CORPUSCULAR HEMOGLOBIN [3]: 25.2 pg; MEAN CORPUSCULAR HEMOGLOBIN CONCENTRATION [3]: 40.33 G/DL; MEAN CORPUSCULAR VOLUME [3]: 62.57 fL; MONOCYTE [3]: 0.33%; NEUTROPHIL [3]: 8.33%; NUCLEATED RED BLOOD CELLS [3]: 0.33 /100WBC; PLATELET COUNT [3]: 1277.67 x10E3/uL; ALANINE AMINOTRANSFERASE [4]: 45.67 u/L; ALBUMIN [4]: 4.5 G/DL; ALKALINE PHOSPHATASE [4]: 128.33 u/L; ASPARTATE AMINOTRANSFERASE [4]: 86 u/L; CARBON DIOXIDE [4]: 18 mmol/L; CHOLESTEROL [4]: 61.67 mg/dL; CREATINE PHOSPHOKINASE [4]: 409.33 u/L; CREATININE [4]: 0.23 mg/dL; LACTATE DEHYDROGENASE [4]: 135.67 u/L; LIPASE [4]: 8.33 u/L; PHOSPHORUS [4]: 10.9 mg/dL; POTASSIUM [4]: 16.23 MEQ/L; TOTAL BILIRUBIN [4]: 0.13 mg/dL; TOTAL PROTEIN [4]: 6.07 G/DL; URIC ACID [4]: 1.4 mg/dL; ABSOLUTE BASOPHIL [5]: 0 CELLS/uL; ABSOLUTE EOSINOPHIL [5]: 0 CELLS/uL; ABSOLUTE LYMPHOCYTE [5]: 13522.67 CELLS/uL; ABSOLUTE MONOCYTE [5]: 88.33 CELLS/uL; ABSOLUTE SEGMENTED NEUTROPHIL [5]: 1389 CELLS/uL; BASOPHIL [5]: 0%; EOSINOPHIL [5]: 0%; ERYTHROCYTE COUNT [5]: 5.31 x10E6/uL; HEMATOCRIT [5]: 34.4%; HEMOGLOBIN [5]: 13.63 G/DL; LEUKOCYTE COUNT [5]: 15 x10E3/uL; MEAN CORPUSCULAR HEMOGLOBIN [5]: 25.67 pg; MEAN CORPUSCULAR HEMOGLOBIN CONCENTRATION [5]: 39.63 G/DL; MEAN CORPUSCULAR VOLUME [5]: 64.8 fL; MONOCYTE [5]: 0.67%; NEUTROPHIL [5]: 9.67%; NUCLEATED RED BLOOD CELLS [5]: 0.33 /100WBC; PLATELET COUNT [5]: 1321.67 x10E3/uL; ALANINE AMINOTRANSFERASE [6]: 54.33 u/L; ALBUMIN [6]: 4.1 G/DL; ALKALINE PHOSPHATASE [6]: 342 u/L; ASPARTATE AMINOTRANSFERASE [6]: 87.33 u/L; BLOOD UREA NITROGEN [6]: 15 mg/dL; CARBON DIOXIDE [6]: 26.67 mmol/L; CHLORIDE [6]: 98.67 MEQ/L; CHOLESTEROL [6]: 76 mg/dL; CREATINE PHOSPHOKINASE [6]: 335.67 u/L; CREATININE [6]: 0.11 mg/dL; GLUCOSE [6]: 157.67 mg/dL; LACTATE DEHYDROGENASE [6]: 223 u/L; PHOSPHORUS [6]: 12.93 mg/dL; POTASSIUM [6]: 6.73 MEQ/L; TOTAL BILIRUBIN [6]: 0.23 mg/dL; TOTAL PROTEIN [6]: 5.9 G/DL; ABSOLUTE BASOPHIL [7]: 0 CELLS/uL; ABSOLUTE EOSINOPHIL [7]: 39.33 CELLS/uL; ABSOLUTE LYMPHOCYTE [7]: 10382.67 CELLS/uL; ABSOLUTE MONOCYTE [7]: 0 CELLS/uL; ABSOLUTE SEGMENTED NEUTROPHIL [7]: 444.67 CELLS/uL; BASOPHIL [7]: 0%; EOSINOPHIL [7]: 0.33%; ERYTHROCYTE COUNT [7]: 5.02 x10E6/uL; HEMATOCRIT [7]: 31.9%; HEMOGLOBIN [7]: 12.83 G/DL; LEUKOCYTE COUNT [7]: 10.87 x10E3/uL; LYMPHOCYTE [7]: 95.67%; MEAN CORPUSCULAR HEMOGLOBIN [7]: 25.6 pg; MEAN CORPUSCULAR HEMOGLOBIN CONCENTRATION [7]: 40.23 G/DL; MEAN CORPUSCULAR VOLUME [7]: 63.6 fL; MONOCYTE [7]: 0%; NEUTROPHIL [7]: 4%; NUCLEATED RED BLOOD CELLS [7]: 0 /100WBC; PLATELET COUNT [7]: 1212.67 x10E3/uL; ALANINE AMINOTRANSFERASE [8]: 40.33 u/L; ALKALINE PHOSPHATASE [8]: 391 u/L; ASPARTATE AMINOTRANSFERASE [8]: 87.33 u/L; BLOOD UREA NITROGEN [8]: 17 mg/dL; CARBON DIOXIDE [8]: 28 mmol/L; CHOLESTEROL [8]: 71.67 mg/dL; CREATINE PHOSPHOKINASE [8]: 215.33 u/L; CREATININE [8]: 0.14 mg/dL; GLUCOSE [8]: 156.33 mg/dL; LACTATE DEHYDROGENASE [8]: 79 u/L; POTASSIUM [8]: 6.73 MEQ/L; TOTAL BILIRUBIN [8]: 0.23 mg/dL; TOTAL PROTEIN [8]: 5.87 G/DL
